# Assays:
# [1] = 900 mgs per day oral, six months; cited from earlier work
# [2] = system: Abeta-mediated changes in membrane trafficking; test: exocytosis (formazan membrane trafficking) assay with Abeta oligomers in mature primary neuronal cultures; format: cell-based, rat; conditions: for amyloid beta (Abeta) in intracellular vesicles (figure legend): exocytosis assay, mature primary neuronal cultures grown for 3 weeks in vitro
# From the text: Abeta oligomer preparations: Human amyloid peptide 1-42 was obtained from a variety of commercial sources, with lot-choice contingent upon quality control analysis. Abeta 1-42 oligomers made according to published methods or isolated from human brain tissue served as positive controls. Toxicity was monitored in each image-based assay via quantification of nuclear morphology visualized with the DNA binding dye DAPI. Nuclei that were fragmented were considered to be in late stage apoptosis. Peptide lots producing unusual peptide size ranges or significant toxicity at standard concentrations on neurons were rejected.
# Image Processing: Images are captured and analyzed with the Cellomics VTI automated microscope platform. For statistical analysis, a Tukey-Kramer pair-wise comparison with unequal variance is used.
# A primary neuron-based functional screening assay to detect small molecule Abeta oligomer blockers: Primary rat neurons grown for at least 3 weeks in vitro were chosen as the basis for this screening assay. […] More complex systems such as acute or organotypic brain slices are very useful but not amenable to high throughput screening. […] For this reason, primary neuronal cultures were chosen because of their ability to be used in high throughput screens and fidelity to what occurs in vivo.
# Measuring membrane trafficking rate changes induced by oligomers via formazan morphological shifts has been used in cell lines to discover Abeta oligomer-blocking drugs.
# Yellow tetrazolium salts are endocytosed by cells and reduced to insoluble purple formazan in the endosomal pathway. The level of purple formazan is a reflection of the number of actively metabolizing cells in culture, and reduction in the amount of formazan was taken as a measure of cell death or metabolic toxicity in culture as well as an indicator of membrane trafficking
# The exocytosis assay was adapted for use with mature primary neuronal cultures grown for 3 weeks in vitro.
# [3] = system: motor neurons; test: motor neuron astrocyte coculture, in vitro model of ALS (SOD G93A astrocytes); format: cell-based, mice
# Protocol: Recent studies have shown that nitro-arachidonic acid can have protective effects compared with native arachidonic acid in an in vitro model of ALS. This model is based on astrocyte-induced motoneuron toxicity induced by a mutation in CuZn SOD (SOD1).
# Briefly, motor neuron astrocytes cocultures were made.
# FIG. 2 illustrates the results of these experiments. Native arachidonic acid (AA) at 3 μM and 5 μM had no effect on the motor neuron survival compared with control.
# [4] = primary neuronal cultures grown for 3 weeks in vitro, Abeta oligomers
molecule,measurement,setting,value
"CC/C=C\C/C=C\C/C=C\C/C=C\C/C=C\C/C=C\CCC(=O)O [DHA, docosahexaenoic acid]",tolerability,[1],well-tolerated
O[C@H]1[C@H](O)[C@@H](O)[C@H](O)[C@@H](O)[C@@H]1O [scyllo-inositol],block of Abeta oligomer effects on membrane trafficking (active / not active),[2]; [4],none were active
CCCCCCCC/C=C\CCCCCCCC(=O)O [oleic acid],EC50,"[2]; Rattus norvegicus, 504 h, primary neuronal cultures grown for 3 weeks in vitro, Abeta oligomers, read-out: EC50, inhibition of oligomer effects on membrane trafficking",2080 nM
same,amyloid beta (Abeta) in intracellular vesicles (figure legend),[2],dose-dependent decrease
C[N+](C)(C)CCCCCC[N+](C)(C)C [hexamethonium bromide],block of Abeta oligomer effects on membrane trafficking (active / not active),[2]; [4],none were active
CCCCC/C=C\C/C=C\C/C=C\C/C=C\CCCC(=O)O [arachidonic acid],motor neuron survival compared with control / mutant astrocyte induced motor neuron death,[3]; 3 μM,no effect
same,motor neuron survival compared with control / mutant astrocyte induced motor neuron death,[3]; 5 μM,no effect
Nitro-oleic acid,amyloid beta (Abeta) in intracellular vesicles (figure legend),[2],dose-dependent decrease
same,block of Abeta oligomer effects on membrane trafficking (active / not active),[2]; [4],little statistically relevant effect on membrane trafficking
nitro-arachidonic acid,motor neuron survival compared with control / mutant astrocyte induced motor neuron death,[3]; 3 μM,inhibited mutant astrocyte induced motor neuron death
same,motor neuron survival compared with control / mutant astrocyte induced motor neuron death,[3]; 5 μM,inhibited mutant astrocyte induced motor neuron death
same,motorneuron death caused by co-culture with astrocytes containing a mutation in SOD1 (SOD G93A),[3]; incubated for 24 hours with wild type motor neurons,limited motorneuron death
C[C@]12N[C@H](Cc3ccccc31)c1ccccc12 [MK-801],block of Abeta oligomer effects on membrane trafficking (active / not active),[2]; [4],none were active
